Where “and” joins values, the source holds several entries; their conditions need not be identical. Equal entries are not always repeated.
Experiments:
Wildtype Samsun tobacco = assay: herbicide damage to wild-type tobacco; format: in vivo; details: 120 g ai/ha, 0 no visible damage, 100 complete death
Description: (§1) Herbicidal damage is visually assessed across the population and a herbicide damage score given at 7 and 14 days. A score of 0 indicates no visible damage or stunting whereas a score of 100 indicates a complete death of the plant. 20 transgenic events (i.e. individual transgenic plants) from each GM tobacco line are transplanted to soil 1 week prior to spraying with PPO inhibiting compounds. WT tobacco is included as a control.
as §1, with “damage was” for “damage is”, “line were” for “line are”
The wild-type Samsun plants show significant damage at the day 7 and 14 assessment time.

AtPPO1 A220C = molecular target: T1, AtPPO1 A220C (Arabidopsis thaliana, UniProt P55826, A220C); assay: E. coli hemG growth inhibition by herbicide, AtPPO1 variant; format: cell-based; details: read-out: percentage growth inhibition
T1 construct: expressed in transfected cells; host or cells: E. coli BL21(DE3) hemG (hemG replaced by CmR), pET24a plasmid
T1 sequence (P55826 35-537 A220C): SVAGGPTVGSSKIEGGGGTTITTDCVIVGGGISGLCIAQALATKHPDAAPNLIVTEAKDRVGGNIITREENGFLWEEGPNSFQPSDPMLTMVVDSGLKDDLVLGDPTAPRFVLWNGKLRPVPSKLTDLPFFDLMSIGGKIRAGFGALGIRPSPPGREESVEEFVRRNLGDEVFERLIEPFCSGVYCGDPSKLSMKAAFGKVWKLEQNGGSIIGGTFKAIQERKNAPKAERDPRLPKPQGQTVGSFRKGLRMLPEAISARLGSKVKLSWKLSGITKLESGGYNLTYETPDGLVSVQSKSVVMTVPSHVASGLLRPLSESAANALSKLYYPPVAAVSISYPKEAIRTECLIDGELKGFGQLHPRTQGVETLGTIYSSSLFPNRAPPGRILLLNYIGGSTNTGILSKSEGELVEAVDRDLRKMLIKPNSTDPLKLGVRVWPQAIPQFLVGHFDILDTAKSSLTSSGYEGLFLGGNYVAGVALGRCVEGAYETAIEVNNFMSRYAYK
Method in brief: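 AtPPO1 variants from a site-saturation library, codon-optimised and T7-driven in pET24a, were expressed in E. coli BL21(DE3) lacking hemG (hemG replaced by CmR). Growth in Terrific broth with 0.1 mM IPTG plus 6.25 ppm herbicide 0 or E, 0.78 ppm herbicide B, or DMSO was read as OD600 after 24 h at 37° C; inhibition was calculated against the DMSO culture.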

SMILES	percentage of damage (Wildtype Samsun tobacco; 7 DAT)	percentage of damage (Wildtype Samsun tobacco; 14 DAT) [%]	inhibition at 6.25 ppm (AtPPO1 A220C) [%]	inhibition at 0.78 ppm (AtPPO1 A220C) [%]
CCOC(=O)[C@]1(C)CC(c2cc(-n3c(=O)n(C)c(=S)n(C)c3=O)c(F)cc2Cl)=NO1 [Herbicide D, ethyl (5S)-3-[2-chloro-5-(3,5-dimethyl-2,6-dioxo-4-thioxo-1,3,5-triazinan-1-yl)-4-fluoro-phenyl]-5-methyl-4H-isoxazole-5-carboxylate]	98% and 100%	100	33	
CCOC(=O)C1(C)CC(c2cc(-n3c(=O)cc(C(F)(F)F)n(C)c3=O)c(F)cc2Cl)=NO1 (stereo not drawn) [Herbicide C, 3-(2-chloro-4-fluoro-5-(3-methyl-2,6-dioxo-4-trifluoromethyl-3,6-dihydropyrimidin-1(2H)-yl)phenyl)-5-methyl-4,5-dihydroisoxazole-5-carboxylic acid ethyl ester]	100%	100		
C#CCN1C(=O)C(F)(F)Oc2cc(F)c(-n3c(=O)n(C)c(=S)n(C)c3=O)cc21 [Herbicide B, trifludimoxazin]	100%	100		15
CC(C)N(C)S(=O)(=O)NC(=O)c1cc(-n2c(=O)cc(C(F)(F)F)n(C)c2=O)c(F)cc1Cl [Herbicide E, saflufenacil]			66	
